According to publication PMC5055185, “Dual pharmacological inhibition of glutathione and thioredoxin systems synergizes to kill colorectal carcinoma stem cells” (Cancer Medicine, 2016):

Assays:
[1] = tested on: OUMS‐36 embryonic fibroblasts; experiment: intracellular ROS, CellROX Deep Red flow cytometry, OUMS-36; format: cell-based, human; settings: treated 1 h (menadione 100 μmol/L, 30 min)
Method: (§1) In order to estimate the effect of each inhibitor described above, intracellular reactive oxygen species (ROS) were measured using CellROX™ Deep Red reagent (Molecular Probes). Briefly, cells were seeded on 6‐well plates at 1 × 10^6 cells per well. After cells reached 90% confluence, cells were treated with designated reagents for 1 h. CellROX™ Deep Red reagent was added at a final concentration of 5 μmol/L to the culture medium and then incubated for 30 min at 37°C. Subsequently, the medium was removed and the cells were washed with PBS and detached using 0.25% trypsin‐EDTA. The resulting fluorescence was measured using a FACS Calibur flow cytometer (Becton Dickinson, Franklin Lakes, NJ). Menadione (100 μmol/L) was added 30 min before CellROX™ Deep Red reagent treatment as a reference ROS inducer. […] CD44v9 positivity of CTOS cells was analyzed as follows: Cancer spheroids were dispersed with serial treatments of TrypLE™ (20 min, GIBCO) and Accumax™ (10 min, Innovative Cell Technologies, San Diego, CA). Cell surface CD44v9 was stained with CD44v9 antibody (Cosmobio) as well as PE‐conjugated anti‐rat IgG2a (Becton Dickinson). The fluorescence was measured using a FACS Calibur flow cytometer (Becton Dickinson). Since CTOSs contained abundant auto‐fluorescent cells, we defined FL2^+FL1^− cells as authentic PE‐positive (Fig. S4). Thus, CD44v9‐positive rate was defined as FL2^+FL1^−/total live cells and CD44v9‐positive fraction was further gated and split between CD44v9^low and CD44v9^high (Fig. S4), to calculate the mean fluorescent intensity of CD44v9^high fraction.
(§2) One hour after each drug treatment, cells were stained with CellROX DeepRed and intracellular ROS were quantified with FACS. Upper: histogram of fluorescent signal is represented. Lower. representative mean fluorescent intensity scores are shown. Note that without drug treatment (Control), intracellular ROS is higher in OUMS36 and TIG3 (embryonic fibroblasts) but lower in DLD-1 and HCT116 (CRC cell lines). ROS in DLD-1 was increased by auranofin. ROS in HCT116 was increased by all the inhibitors tested. […]

HCT116 CRC cell line = experiment: intracellular ROS, CellROX Deep Red flow cytometry, HCT116; format: cell-based, human; settings: treated 1 h (menadione 100 μmol/L, 30 min)
Method: as §1
One hour after each drug treatment, cells were stained with CellROX DeepRed and intracellular ROS were quantified with FACS. Upper: histogram of fluorescent signal is represented. Lower. representative mean fluorescent intensity scores are shown. Note that without drug treatment (Control), intracellular ROS is higher in OUMS36 and TIG3 (embryonic fibroblasts) but lower in DLD-1 and HCT116 (CRC cell lines). ROS in DLD-1 was increased by auranofin. ROS in HCT116 was increased by all the inhibitors tested. Menadione was used as a reference chemical to increase ROS.

[2] = tested on: TIG‐3 embryonic fibroblasts; experiment: intracellular ROS, CellROX Deep Red flow cytometry, TIG-3; format: cell-based, human; settings: treated 1 h (menadione 100 μmol/L, 30 min)
Method: as §1, §2

[3] = tested on: NRF2 target genes in colorectal CTOSs; experiment: qRT-PCR of NRF2 and TP53 target genes in colorectal CTOSs; format: cell-based, human; settings: higher dose (auranofin 4, CB83 25, piperlongumine 10 μmol/L) for 24 h
Method: Total RNA was purified using RNAiso Plus (Takara, Osaka, Japan). Reverse transcription was performed using PrimeScript™ with gDNA Eraser (Takara). For quantifying the copy number of each mRNA, we used a StepOne™ Real‐Time PCR System (Applied Biosystems, Waltham, MA) and the Taqman® method. Data were calculated according to the modified delta‐cycle of threshold (ΔCT) method. Normalized Log2 expression was defined as follows: (Log2 expression of a gene of interest) = 30 (arbitrary constant) + (CT of 18S rRNA) − (CT of a gene of interest). We used Log2 parameter for statistical analysis because mRNA expression follows a log‐normal distribution, whereas ΔCT follows normal distribution. A gene‐specific fluorescent probe was designed using a web‐based program (https://qpcr.probefinder.com/organism.jsp). […] Gene‐specific Taqman® probes were purchased from Life Technologies, (Waltham, MA, for Cat#, see Table S1 SpreadSheet2). For PCR, Thunderbird® Probe qPCR mix (Toyobo, Osaka, Japan) was used and the PCR conditions consisted of 40 cycles of two steps (95°C for 15 sec and 60°C for 50 sec).
In order to judge the effect of drug treatments on gene expression, a repeated measures one‐way analysis of variance (ANOVA) was used to determine the variance of Log2 expression from four different groups (untreated, auranofin, CB83, and piperlongumine) using SPSS. Subsequently, the effect of each drug was determined by a paired t test as a post hoc analysis. The P‐values < 0.05 were defined as statistically significant.
In order to estimate NRF2 compensation induced by pharmacological inhibition of TXNRD (auranofin), G6PD (CB83), or GSTπ (piperlongumine), we quantified gene expression of NRF2 target genes. Activation of NRF2 protein was confirmed by NRF2 phosphorylation (Fig. S5A).

[4] = tested on: phosphorylated NRF2 in colorectal CTOSs; experiment: NRF2 phosphorylation by western blotting, colorectal CTOSs; format: cell-based, human; settings: 24 hours, Auranofin 2µM, Piperlongumine 5µM, CB83 12.5 µM
Method: From colorectal CTOS, whole‐cell proteins were dissolved with solubilizer (7 mol/L urea, 2 mol/L thiourea, 2% Triton X‐100, Wako) and the entangled genomic DNA was sheared by sonication for 30 min. Procedures for immunoblotting have been described elsewhere 6, 10. Primary antibodies used in this study are as follows: phosphorylated NRF2 from Abcam (#76026) and Histone H3 from Cell Signaling Technologies (#4499, Danvers, MA). Phosphorylation of NRF2 is well correlated with nuclear accumulation in HCCs 6. Representative data are shown in the figures; all experiments were reproduced at least twice with different passage points.
Colorectal CTOSs were incubated with each inhibitor for 24 hours. Whole cell proteins were extracted and each well was loaded with same amount of proteins (40 µg for NRF2 and 10 µg for H3). Phosphorylation of NRF2 was measured by western blotting. Blotting for histone H3 serves as loading control.

CRC cell lines = tested on: CRC cell lines; parameters: method as in PMID 25591719; settings: cited from earlier work
DLD‐1 CRC cell line = experiment: intracellular ROS, CellROX Deep Red flow cytometry, DLD-1; format: cell-based, human; settings: treated 1 h (menadione 100 μmol/L, 30 min)
Method: as §1, with “Since CTOSs contained abundant auto‐fluorescent cells, we defined FL2^+FL1^− cells as authentic PE‐positive (Fig. S4). Thus, CD44v9‐positive rate was defined as FL2^+FL1^−/total live cells and CD44v9‐positive fraction was further gated and split between CD44v9^low and CD44v9^high (Fig. S4), to calculate the mean fluorescent intensity of CD44v9^high fraction.” left out
One hour after each drug treatment, cells were stained with CellROX DeepRed and intracellular ROS were quantified with FACS. […]

Compound | intracellular ROS response [1] | intracellular ROS response (HCT116 CRC cell line) | intracellular ROS response [2] | TXNRD1 mRNA expression change [3] | NRF2 phosphorylation [4] | GSH/GSSG ratios (CRC cell lines) | NADPH/NADP+ ratios (CRC cell lines) | intracellular ROS response (DLD‐1 CRC cell line)
Cc1ccc(C)c(S(=O)(=O)Nc2ccc(O)c3ccccc23)c1 [CB83] | no ROS increase | increase of ROS | no ROS increase | up‐regulated | efficiently phosphorylated | failed to alter | decreased | 
CC1=CC(=O)c2ccccc2C1=O [menadione, Menadione] | no ROS increase | increase of ROS | no ROS increase |  |  |  |  | increase of ROS
